Measured values reported in US4961920A, “Phototherapeutic monovinyl and divinyl ether-linked dimers” (Luminis Pty, Ltd., priority 1988, dated 1990).

Tested on: Lewis lung carcinoma cells
Assay: Photosensitization of tumors: days for Lewis lung carcinoma to regrow to palpable tumor in mice after red-light irradiation
Assay type: in vivo
Conditions: 25-60 mg/kg, i.p. or i.v.; red light 24 h after dosing; groups of 10 C57BL mice; end point 5 out of 10 mice regrow palpable tumor
From the text: Lewis lung carcinoma cells (Dr. L. Dent, Flinders Medical Centre), are transplanted into the back of C57BL mice by subcutaneous injection of approximately 10^6 cells per mouse. […] Twenty-four hours later mice are anesthetized, the fur over the tumor shaved, and a 1 cm diameter area over the tumor is irradiated with red light as specified. Mice are palpated daily for recurrence of tumor. The end point is the number of days for 5 out of 10 mice to regrow palpable tumor.
Light can be supplied by a gold metal vapor laser (Quentron Optica Pty. Ltd.) with wavelength 627.8 nm. This laser generates average light intensities of 400 mW coupled to a 400 um quartz fiber and can be positioned to create a 1 cm diameter spot.
Data were recorded as "TC50 "--the first time (in days) after treatment for the tumor to regrow to a palpable stage (as shown in Table 1).

In the case of “Divinyldeuteroporphyrin Ether-linked Dimer [(1) where both R = vinyl]”, the “TC50 (first time after treatment for the tumor to regrow to a palpable stage)” value is reported as 7 days.

With “Monohydroxyethyl Monovinyl Deuteroporphyrin Ether-linked Dimer” the “TC50 (first time after treatment for the tumor to regrow to a palpable stage)” value was 3 days.
